Assay: Tissue distribution and elimination of total radioactivity (total residues) after oral ^3H-ADP for 7 d
Format: in vivo
Conditions: rats, 5 mg/kg b.w. 7 days
Method: (0.1 Ci/g) through oral gavage for 7 consecutive days. All the animals were housed on the basis of their group in the cages or aquaria throughout the whole study period. A group of animals was slaughtered through exsanguination under diethyl ether inhalation of anesthesia in the period of 6 h, 1, 3, 7, 14, and 21 d after the administration. The blood samples were immediately collected into the heparinized tubes and was centrifuged at 1920 × g at 4 °C for 10 min to obtain the plasma. The tissues from the heart, liver, spleen, lung, kidney, craw (broilers), stomach, intestine, fat, skin, muscle, thymus, pancreas, bile, bladder, hair (scale for carp), genital gland, adrenal glands, swim bladder (carp), brain, lymph, and bursa (broilers) were carefully excised and collected. The tissues were thoroughly rinsed with the deionized water to remove the residuary blood, blotted to dryness, and finally to perform the homogenization. In order to avoid cross-contamination the dissecting instruments were washed during the tissue procurements. The blank tissues were collected in order to provide control matrices. The total radioactivity levels in each sample were determined through LSC. The samples extracted from the plasma, bile, and tissues of the liver, kidney, muscle, and fat/skin were analyzed through LC/MS-IT-TOF and v. ARC radiometric detection for metabolite profiling.
Measurements of the total radioactivity in each sample were conducted by Packard Tri-Carb 2900 TR liquid scintillation counter (PerkinElmer Life and Analytical Sciences). The detection time was 10 min for two cycles. The scintillation counter data were automatically corrected for counting efficiency by instrument-stored quench curve which was drawn with a series of sealed quenched […] standards. The actual radioactivity of each sample was calculated by subtracting the background value form the mean radioactivity in two blank samples. All the samples were analyzed in duplicate if the sample size allowed this. If the results were differed by more than 10% from the mean value, the samples were reanalyzed. The samples with LSC counts less than 2-fold of the level of the running background were considered to contain insufficient radioactivity for reliable quantification.
Aliquots of liquid samples (urine, plasma, bile and raised water, 200 μL) were mixed with 10 mL of Ultima Gold^TM scintillation fluid for the direct analysis by LSC. Aliquots of solid samples (feces and tissues, 200 mg) were digested overnight with 2 mL tissue solubilizer at 50 °C in a shaking water bath, followed by adding 200 μL of 0.1 mol/L EDTA-Na and 200 μL of 30% H2O2, and was bathed at 50 °C for 2 h to bleach. The obtained transparent liquid were mixed with 10 mL of scintillation fluid and finally were counted by LSC. The digestion efficiency was determined by using the blank samples spiked with ^3 H standard for digestion, and the measured radioactivity content in the digested samples were adjusted by using the digestion efficiency values.
The concentrations of ADP and/or its metabolites were analyzed by using the following equation: C = L/(2.22 × 10^9 × RM), where C is the concentration of ADP or/and its metabolites (mg/kg), L is the LSC count (dpm), R is the specific activity of the administered dose (0.1 Ci/g), and M is the weight or volume of samples (kg or L). The results are expressed as mean ± SD. The elimination kinetics of terminal phase for ADP and its metabolites were conducted by using the WinNonlin linear regression program (Pharsight corporation, Statistical consultants, Inc., Kentucky, USA).

Structure (SMILES): [3H]c1c(Cc2cnc(N)nc2N)cc(OC)c(N(C)C)c1OC [^3H-ADP]
- Elimination kinetics Ke (Adrenal): 0.28
- Elimination kinetics Ke (Bladder): 0.56
- Elimination kinetics t1/2 (Bladder): 29.5 h
- Elimination kinetics Ke (Blood): 0.22
- Elimination kinetics t1/2 (Blood): 75.4 h
- Elimination kinetics Ke (Brain): 0.26
- Elimination kinetics t1/2 (Brain): 64.6 h
- Elimination kinetics Ke (Fat): 0.26
- Elimination kinetics Ke (Gonades): 0.40
- Elimination kinetics t1/2 (Gonades): 41.5 h
- Elimination kinetics Ke (Heart): 0.24
- Elimination kinetics t1/2 (Heart): 70.8 h
- Elimination kinetics Ke (Kidney): 0.21
- Elimination kinetics Ke (Large Intestine): 0.40
- Elimination kinetics t1/2 (Large Intestine): 41.3 h
- Elimination kinetics Ke (Liver): 0.18
- Elimination kinetics Ke (Lung): 0.24
- Elimination kinetics t1/2 (Lung): 69.1 h
- Elimination kinetics Ke (Muscle): 0.25
- Elimination kinetics Ke (Pancreas): 0.26
- Elimination kinetics t1/2 (Pancreas): 63.6 h
- Elimination kinetics Ke (Skin): 0.19
- Elimination kinetics t1/2 (Skin): 86.2 h
- Elimination kinetics Ke (Small Intestine): 0.36
- Elimination kinetics t1/2 (Small Intestine): 46.3 h
- Elimination kinetics Ke (Spleen): 0.24
- Elimination kinetics t1/2 (Spleen): 69.4 h
- Elimination kinetics Ke (Stomach): 0.27
- Elimination kinetics t1/2 (Stomach): 62.6 h
- Elimination kinetics Ke (Thymus): 0.35
- Elimination kinetics t1/2 (Thymus): 48.2 h
